{"source": "ChEMBL document CHEMBL3600336", "about": "“Design and synthesis of silicon-containing fatty acid amide derivatives as novel peroxisome proliferator-activated receptor (PPAR) agonists” (Bioorg Med Chem Lett, 2015)", "note": "Activity calls are given as the source filed them. The rule behind the calls is not given here."}
{"target": "T1, Peroxisome proliferator-activated receptor alpha (Homo sapiens) (UniProt Q07869)", "T1 sequence (whole entry)": "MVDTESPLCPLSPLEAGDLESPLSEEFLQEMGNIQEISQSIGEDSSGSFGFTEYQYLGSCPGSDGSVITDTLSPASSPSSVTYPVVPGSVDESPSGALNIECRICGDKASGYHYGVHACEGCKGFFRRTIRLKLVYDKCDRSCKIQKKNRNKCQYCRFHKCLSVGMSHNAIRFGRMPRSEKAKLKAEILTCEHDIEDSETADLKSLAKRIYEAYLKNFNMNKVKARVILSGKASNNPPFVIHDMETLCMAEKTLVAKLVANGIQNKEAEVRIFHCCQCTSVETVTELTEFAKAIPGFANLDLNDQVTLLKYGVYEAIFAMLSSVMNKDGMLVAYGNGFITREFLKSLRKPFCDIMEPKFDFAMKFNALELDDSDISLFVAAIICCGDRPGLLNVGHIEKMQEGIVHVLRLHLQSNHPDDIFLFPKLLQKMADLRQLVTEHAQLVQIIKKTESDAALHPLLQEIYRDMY", "assay": "Agonist activity at Gal4-tagged human PPARalpha expressed in HEK293 cells at 3 to 30 uM incubated for 16 to 20 hrs by luciferase and beta-galactosidase activity based reporter gene assay", "type": "cell-based", "settings": "not given"}
{"smiles": "CCCCCCCC[Si](C)(C)CCCCCCCC(=O)NCCO", "Activity": "Active"}
{"smiles": "CCCCCCCC[Si](CC)(CC)CCCCCCC(=O)NCCO", "Activity": "inactive"}
{"smiles": "CCCCCCCC/C=C\\CCCCCCCC(=O)NCCO", "Activity": "Active"}
{"smiles": "CCCCCCCC[Si](CCC)(CCC)CCCCCCCC(=O)NCCO", "Activity": "Active"}
{"smiles": "CCCCCCCCCCCCCCCCCC(=O)NCCO", "Activity": "inactive"}
{"smiles": "CCCCCCCC[Si](CCCC)(CCCC)CCCCCCCC(=O)NCCO", "Activity": "inactive"}
{"smiles": "CCCCCCCC[Si](CC)(CC)CCCCCCCC(=O)NCCO", "Activity": "Active"}
{"smiles": "CCCCCCC[Si](CC)(CC)CCCCCCCC(=O)NCCO", "Activity": "inactive"}
{"target": "T2, Peroxisome proliferator-activated receptor delta (Homo sapiens) (UniProt Q03181)", "T2 sequence (whole entry)": "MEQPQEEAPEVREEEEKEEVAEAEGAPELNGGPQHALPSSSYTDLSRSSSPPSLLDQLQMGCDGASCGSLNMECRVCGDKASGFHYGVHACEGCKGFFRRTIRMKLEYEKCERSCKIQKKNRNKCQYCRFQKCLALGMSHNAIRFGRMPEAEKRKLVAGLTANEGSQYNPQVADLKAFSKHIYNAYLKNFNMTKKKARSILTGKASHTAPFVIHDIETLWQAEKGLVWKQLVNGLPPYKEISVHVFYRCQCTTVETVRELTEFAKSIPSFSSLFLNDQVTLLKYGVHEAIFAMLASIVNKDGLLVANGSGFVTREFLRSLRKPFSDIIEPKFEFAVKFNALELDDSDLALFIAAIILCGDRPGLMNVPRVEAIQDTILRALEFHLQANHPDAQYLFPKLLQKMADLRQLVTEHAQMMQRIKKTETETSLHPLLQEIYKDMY", "assay": "Agonist activity at Gal4-tagged human PPARdelta expressed in HEK293 cells at 3 to 30 uM incubated for 16 to 20 hrs by luciferase and beta-galactosidase activity based reporter gene assay", "type": "cell-based", "settings": "not given"}
{"smiles": "CCCCCCCC[Si](C)(C)CCCCCCCC(=O)NCCO", "Activity": "Active"}
{"smiles": "CCCCCCCC[Si](CC)(CC)CCCCCCC(=O)NCCO", "Activity": "inactive"}
{"smiles": "CCCCCCCC[Si](CCC)(CCC)CCCCCCCC(=O)NCCO", "Activity": "Active"}
{"smiles": "CCCCCCCC[Si](CCCC)(CCCC)CCCCCCCC(=O)NCCO", "Activity": "inactive"}
{"smiles": "CCCCCCCC[Si](CC)(CC)CCCCCCCC(=O)NCCO", "Activity": "Active"}
{"smiles": "CCCCCCC[Si](CC)(CC)CCCCCCCC(=O)NCCO", "Activity": "Active"}
{"target": "T3, Peroxisome proliferator-activated receptor gamma (Homo sapiens) (UniProt P37231)", "T3 sequence (whole entry)": "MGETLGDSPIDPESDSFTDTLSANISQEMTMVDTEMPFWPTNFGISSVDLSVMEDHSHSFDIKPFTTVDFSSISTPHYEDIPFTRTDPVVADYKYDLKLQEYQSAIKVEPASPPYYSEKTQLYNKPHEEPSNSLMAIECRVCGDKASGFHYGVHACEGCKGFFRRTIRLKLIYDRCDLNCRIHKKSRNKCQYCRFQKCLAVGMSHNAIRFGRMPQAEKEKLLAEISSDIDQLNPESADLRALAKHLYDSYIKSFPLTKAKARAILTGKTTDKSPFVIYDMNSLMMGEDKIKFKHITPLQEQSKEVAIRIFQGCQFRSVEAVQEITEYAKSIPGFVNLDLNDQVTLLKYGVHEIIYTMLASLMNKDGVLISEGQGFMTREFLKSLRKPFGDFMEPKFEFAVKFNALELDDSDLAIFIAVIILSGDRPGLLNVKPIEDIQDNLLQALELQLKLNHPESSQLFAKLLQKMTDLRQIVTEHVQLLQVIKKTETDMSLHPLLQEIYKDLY", "assay": "Agonist activity at Gal4-tagged human PPARgamma expressed in HEK293 cells at 3 to 30 uM incubated for 16 to 20 hrs by luciferase and beta-galactosidase activity based reporter gene assay", "type": "cell-based", "settings": "not given"}
{"smiles": "CCCCCCCC[Si](C)(C)CCCCCCCC(=O)NCCO", "Activity": "inactive"}
{"smiles": "CCCCCCCC[Si](CC)(CC)CCCCCCC(=O)NCCO", "Activity": "inactive"}
{"smiles": "CCCCCCCC[Si](CCC)(CCC)CCCCCCCC(=O)NCCO", "Activity": "inactive"}
{"smiles": "CCCCCCCCCCCCCCCCCC(=O)NCCO", "Activity": "inactive"}
{"smiles": "CCCCCCCC[Si](CCCC)(CCCC)CCCCCCCC(=O)NCCO", "Activity": "inactive"}
{"smiles": "CCCCCCCC[Si](CC)(CC)CCCCCCCC(=O)NCCO", "Activity": "inactive"}
{"smiles": "CCCCCCC[Si](CC)(CC)CCCCCCCC(=O)NCCO", "Activity": "inactive"}
{"test_system": "HEK293", "assay": "Toxicity against HEK293 cells assessed as reduction in cell viability at 30 uM", "type": "cell-based", "settings": "human, hek293, 30 µM"}
{"smiles": "CCCCCCC[Si](CC)(CC)CCCCCCCC(=O)NCCO", "Activity": "Toxic"}
